# Reference: US20170050945A1, “COMPOSITIONS AND METHODS FOR THE TREATMENT OF SARCOIDOSIS” (INSMED INCORPORATED, priority 2015, published 2017)
# pIC50: −log10 of the molar value.
# Columns and labels:
# [1] = target: T1, Human Inosine 5′-Monophosphate Dehydrogenase 1 (IMPDH) (Homo sapiens, UniProt P20839); test: Inhibition of human inosine 5′-monophosphate dehydrogenase (IMPDH assay kit); assay type: biochemical
# T1 construct: purchased R&D Systems 8904DH
# Text: Human Inosine 5′-Monophosphate Dehydrogenase 1 (IMPDH) catalyzes the nicotinamide adenine dinucleotide (NAD)-dependent oxidation of inosine-5′-monophosphate (IMP) to xanthosine-5′-monophosphate (XMP), which is the committed step in de novo guanosine nucleotide biosynthesis. B and T lymphocytes depend on IMPDH activity to generate the guanosine nucleotide levels needed to initiate a proliferative response to mitogen or antigen.
# A comparison of the ability of MPA and hexadecyl mycophenolate (mono-C16MP) to inhibit IMPDH was undertaken.
# IMPDH (R&D Systems 8904DH) was incubated with mycophenolic acid (MPA) and, separately, mono-C16MP at concentrations ranging from about 0.015 to 15 μM. The IMPDH activity was determined using a BMR Service IMPDH assay kit (E-119).
# Inhibition of IMPDH was calculated as a percentage of IMPDH activity in the absence of MPA.
# [2] = Lung to plasma MPA ratio after inhaled dosing of MPS, MMF or mono-C16MP in mice; assay type: in vivo; conditions: inhalation, C57BL/6 mice, 0-6 h post-dose
# Description: Studies to determine the lung to plasma ratio obtained by inhalation of mycophenolate sodium (MPS), mycophenolate mofetil (MMF), and hexadecyl mycophenolate (mono-C16MP) were conducted.
# In each study group, C57BL/6 mice were given MPS, MMF or mono-C16MP by inhalation and the lung and plasma mycophenolic acid (MPA) concentrations were measured at t=0, 0.5, 1, 2, 4, and 6 h post-dose.
# For each mouse in the study, the lung to plasma MPA ratios were calculated; the individual calculated ratios were averaged for each treatment group and the average values were plotted, shown in FIG. 6.
# [3] = system: LPS-stimulated TNF-α production in THP-1 derived human macrophages; test: Inhibition of LPS-stimulated TNF-α production in human THP-1 derived macrophages, TNF ELISA; assay type: cell-based; conditions: 4 h pre-incubation, then 100 pg/mL LPS for 16 h
# Description: (§1) THP-1 cells were cultured in media with 50 ng/mL phorbol myristate acetate (PMA) for 24 h and then in fresh media without PMA for an additional 24 h. […] The well plates were treated with mycophenolate sodium at concentrations ranging from 0.03 to 10 μm and incubated for a period for 4 h. After this period, LPS was added to each well plate at a concentration of 100 pg/mL and the LPS-, mycophenolate-treated well plates were incubated for 16 h. After 16 h, the cell supernatants were collected for TNF measurement and the remaining macrophages were assessed for cytotoxicity. TNF concentrations were assayed using a human TNF ELISA kit available from ThermoFisher. Cytotoxicity was determined using the CellTox green assay available from Promega.
# (§2) Inhibition of TNF-α production was calculated as a percentage of LPS-stimulated TNF production in the absence of mycophenolate sodium.
# [4] = system: LPS-stimulated TNF-α production in rat alveolar macrophages (NR8383); test: Inhibition of LPS-stimulated TNF-α production in rat alveolar macrophages (NR8383), TNF ELISA; assay type: cell-based; conditions: Macrophage, NR8383 cells, co-treated with 25 ng/mL LPS, 20 h
# Description: (§3) Rat alveolar macrophages (NR8383) were co-treated with 25 ng/mL lipopolysaccharide (LPS) and mycophenolate sodium at concentrations ranging from 0.15 to about 15 μm for a period of 20 h. After this period, the cell supernatants were collected for TNF measurement and the remaining macrophages were assessed for cytotoxicity. TNF concentrations were assayed using a rat TNF ELISA kit available from ThermoFisher. Cytotoxicity was determined using the CellTox green assay available from Promega.
# as §2
# [5] = system: rat alveolar macrophages (NR8383); test: Cytotoxicity toward rat alveolar macrophages (NR8383), CellTox green assay; assay type: cell-based; conditions: NR8383 cells, any concentration tested (0.15 to about 15 μm), 20 h
# Description: as §3, §2
# [6] = system: THP-1 derived human macrophages; test: Cytotoxicity toward human THP-1 derived macrophages, CellTox green assay; assay type: cell-based
# Description: as §1, §2
# T1 sequence (P20839 whole entry): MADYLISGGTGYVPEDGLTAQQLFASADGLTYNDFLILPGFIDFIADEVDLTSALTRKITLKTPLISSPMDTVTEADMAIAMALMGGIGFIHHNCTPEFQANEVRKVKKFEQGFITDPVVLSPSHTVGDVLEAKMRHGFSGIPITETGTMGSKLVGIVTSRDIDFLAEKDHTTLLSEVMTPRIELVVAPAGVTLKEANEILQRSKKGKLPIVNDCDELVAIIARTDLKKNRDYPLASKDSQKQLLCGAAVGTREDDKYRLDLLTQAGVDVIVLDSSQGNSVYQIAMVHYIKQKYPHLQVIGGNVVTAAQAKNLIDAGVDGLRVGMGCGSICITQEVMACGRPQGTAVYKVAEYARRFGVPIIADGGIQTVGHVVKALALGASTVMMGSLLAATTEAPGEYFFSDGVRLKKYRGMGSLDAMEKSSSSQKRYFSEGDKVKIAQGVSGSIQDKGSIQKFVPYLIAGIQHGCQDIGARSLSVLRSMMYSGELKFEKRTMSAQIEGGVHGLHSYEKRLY
smiles,measurement,setting,value
"COc1c(C)c2c(c(O)c1C/C=C(\C)CCC(=O)O)C(=O)OC2 [MPA, (4E)-6-(4-hydroxy-6-methoxy-7-methyl-3-oxo-1,3-dihydro-2-benzofuran-5-yl)-4methylhex-4-enoic acid]",pIC50,[1],6.85
"CCCCCCCCCCCCCCCCOC(=O)CC/C(C)=C/Cc1c(O)c2c(c(C)c1OC)COC2=O [mono-C16MP, hexadecyl mycophenolate]",Inhibition of IMPDH,[1]; about 0.015 to 15 μM tested,does not inhibit IMPDH in a concentration-dependent manner
same,Lung to plasma exposure ratio of MPA compared to the ratio obtained with MPS or MMF,[2],higher lung to plasma exposure ratio
COc1c(C)c2c(c(O)c1C/C=C(\C)CCC(=O)O)C(=O)OC2 [mycophenolate sodium],Emax,[3],67%
same,pIC50,[3],5.85
same,Emax,[4],54%
same,pIC50,[4],5.82
same,Cytotoxicity,[5],no significant cytotoxicity
same,Cytotoxicity,"[6]; 3 μM, P<0.05",6.6%
same,Cytotoxicity,"[6]; 10 μM, P<0.05",8.9%
same,Cytotoxicity,[6]; concentrations <3 μM,no significant cytotoxicity
